Results from PubChem BioAssay AID248 (DTP/NCI, 2004).
Values joined by “and” are separate entries in the source; they are usually repeats but may differ in a detail not shown here. Equal entries are not always repeated. Inconclusive results and toxic doses are left out. No stated cut-off is given here; in the data, active means T/C of 150% or more; inactive means T/C below 125%.

System: L1210 leukemia ip in BDF1 mice, survival T/C
Assay: NCI In Vivo Anticancer Drug Screen. Data for tumor model L1210 Leukemia (intraperitoneal) in B6D2F1 (BDF1) mice
Conditions: endpoint: mean survival time, higher = longer survival
Summary of the method: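 Mice bearing the transplanted tumor received compound or vehicle. Survival of the treated group was divided by that of the vehicle-treated control group to give the ratio.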

[1] = dose: 100.0 mg/kg/injection, schedule: Q01DX009 (ip), vehicle: Klucel (hydroxypropylcellulose) (HPC)
[2] = dose: 100.0 mg/kg/injection, schedule: Q04DX003 (ip), vehicle: Klucel (hydroxypropylcellulose) (HPC)
[3] = dose: 100.0 mg/kg/injection, schedule: Q04DX003 (ip), vehicle: saline
[4] = dose: 200.0 mg/kg/injection, schedule: Q01DX009 (ip), vehicle: Klucel (hydroxypropylcellulose) (HPC)
[5] = dose: 200.0 mg/kg/injection, schedule: Q04DX003 (ip), vehicle: Klucel (hydroxypropylcellulose) (HPC)
[6] = dose: 200.0 mg/kg/injection, schedule: Q04DX003 (ip), vehicle: saline
[7] = dose: 400.0 mg/kg/injection, schedule: Q01DX009 (ip), vehicle: Klucel (hydroxypropylcellulose) (HPC)
[8] = dose: 400.0 mg/kg/injection, schedule: Q04DX003 (ip), vehicle: Klucel (hydroxypropylcellulose) (HPC)
[9] = dose: 400.0 mg/kg/injection, schedule: Q04DX003 (ip), vehicle: saline
[10] = dose: 50.0 mg/kg/injection, schedule: Q01DX009 (ip), vehicle: Klucel (hydroxypropylcellulose) (HPC)
[11] = dose: 50.0 mg/kg/injection, schedule: Q01DX009 (ip), vehicle: saline with Tween-80
[12] = dose: 100.0 mg/kg/injection, schedule: Q01DX009 (ip), vehicle: saline with Tween-80
[13] = dose: 100.0 mg/kg/injection, schedule: Q01DX009 (ip), vehicle: other
[14] = dose: 100.0 mg/kg/injection, schedule: Q01DX001 (ip), vehicle: saline with Tween-80
[15] = dose: 100.0 mg/kg/injection, schedule: Q01DX009 (ip), vehicle: saline
[16] = dose: 200.0 mg/kg/injection, schedule: Q01DX009 (ip), vehicle: saline

Measured: T/C

COC1(OC)C2(Cl)C(Cl)=C(Cl)C1(Cl)C1C(=O)C=CC(=O)C12 (stereo not given)
inactive: [1] 104 % of control | [2] 100 % of control | [3] 98 % of control | [4] 96 % of control | [5] 98 % of control | [6] 93 % of control | [7] 98 % of control | [8] 96 % of control | [9] 101 % of control

O=C(Nc1ccccc1F)Nc1ccccc1Cl
inactive: dose: 25.0 mg/kg/injection, schedule: Q01DX009 (ip), vehicle: Klucel (hydroxypropylcellulose) (HPC) 95 % of control | [10] 104 % of control | [1] 96 % of control | [2] 87 % of control | [4] 93 % of control and 92 % of control | [5] 89 % of control | [7] 95 % of control and 91 % of control

Cc1c(-c2ccccc2)n(O)[n+]([O-])c1-c1ccccc1
inactive: [10] 98 % of control | [1] 94 % of control | [4] 94 % of control

C(=Nc1ccc(-c2ccccc2)cc1)c1ccccc1
inactive: dose: 25.0 mg/kg/injection, schedule: Q01DX009 (ip), vehicle: saline with Tween-80 105 % of control | [11] 97 % of control | [12] 92 % of control

Cn1cnccc1=S
inactive: dose: 25.0 mg/kg/injection, schedule: Q01DX001 (ip), vehicle: saline 96 % of control | dose: 50.0 mg/kg/injection, schedule: Q01DX001 (ip), vehicle: saline 108 % of control

NC(CSCc1cc(=O)[nH]c(=O)[nH]1)C(=O)O (stereo not given)
inactive: [3] 97 % of control | [6] 97 % of control | [9] 95 % of control

CNc1ccc(Cl)cc1-c1nc2ccccc2[nH]1
inactive: [10] 109 % of control | [1] 102 % of control | [4] 102 % of control

CC(=O)OCC1OC(SSC2OC(COC(C)=O)C(OC(C)=O)C(OC(C)=O)C2OC(C)=O)C(OC(C)=O)C(OC(C)=O)C1OC(C)=O (stereo not given)
inactive: dose: 100.0 mg/kg/injection, schedule: Q01DX001 (ip), vehicle: saline 93 % of control | dose: 200.0 mg/kg/injection, schedule: Q01DX001 (ip), vehicle: saline 95 % of control | dose: 400.0 mg/kg/injection, schedule: Q01DX001 (ip), vehicle: saline 89 % of control

C[S+](C)Cc1ccccc1
inactive: dose: 50.0 mg/kg/injection, schedule: Q04DX003 (ip), vehicle: saline 96 % of control | [13] 93 % of control | [3] 100 % of control

CC(NC(N)=O)C(=O)O (stereo not given)
inactive: dose: 100.0 mg/kg/injection, schedule: Q04DX002 (ip), vehicle: saline 89 % of control | dose: 200.0 mg/kg/injection, schedule: Q04DX002 (ip), vehicle: saline 104 % of control | dose: 400.0 mg/kg/injection, schedule: Q04DX002 (ip), vehicle: saline 93 % of control

COc1cc2c(cc1OC)N(S(=O)(=O)c1ccc(C)cc1)CCCC2=O
inactive: [1] 96 % of control | [2] 96 % of control | [4] 91 % of control | [5] 93 % of control | [7] 93 % of control | [8] 102 % of control

CCOC(=O)C(C)C(O)(c1ccccc1)c1ccccc1 (stereo not given)
inactive: [1] 90 % of control | [4] 97 % of control | [7] 106 % of control

OC1c2ccccc2CC1N1CCCCC1 (stereo not given)
inactive: [14] 97 % of control

CC(=NC1CCCCC1)Nc1ccc(NC(=O)c2ccc(C(=O)Nc3ccc(NC(C)=NC4CCCCC4)cc3)cc2)cc1
inactive: dose: 15.0 mg/kg/injection, schedule: Q01DX Z (ip), vehicle: carboxymethylcellulose (CMC) 92 % of control | dose: 30.0 mg/kg/injection, schedule: Q01DX Z (ip), vehicle: carboxymethylcellulose (CMC) 93 % of control | dose: 60.0 mg/kg/injection, schedule: Q01DX Z (ip), vehicle: carboxymethylcellulose (CMC) 96 % of control

OC(OCCCCCCOC(O)C(Cl)(Cl)Cl)C(Cl)(Cl)Cl (stereo not given)
inactive: [12] 93 % of control | dose: 100.0 mg/kg/injection, schedule: Q04DX003 (ip), vehicle: saline with Tween-80 98 % of control | dose: 200.0 mg/kg/injection, schedule: Q01DX009 (ip), vehicle: saline with Tween-80 98 % of control | dose: 200.0 mg/kg/injection, schedule: Q04DX003 (ip), vehicle: saline with Tween-80 104 % of control | dose: 400.0 mg/kg/injection, schedule: Q01DX009 (ip), vehicle: saline with Tween-80 106 % of control | dose: 400.0 mg/kg/injection, schedule: Q04DX003 (ip), vehicle: saline with Tween-80 98 % of control

CNc1nc(SCc2ccccc2)c2ncn(C3OC(CO)C(O)C3O)c2n1 (stereo not given)
inactive: dose: 50.0 mg/kg/injection, schedule: Q01DX001 (ip), vehicle: carboxymethylcellulose (CMC) 106 % of control | dose: 100.0 mg/kg/injection, schedule: Q01DX001 (ip), vehicle: carboxymethylcellulose (CMC) 95 % of control | dose: 200.0 mg/kg/injection, schedule: Q01DX001 (ip), vehicle: carboxymethylcellulose (CMC) 104 % of control

CCOC(=O)C1CCCCCC1=O (stereo not given)
inactive: dose: 50.0 mg/kg/injection, schedule: Q01DX009 (ip), vehicle: saline 110 % of control | [15] 98 % of control | dose: 100.0 mg/kg/injection, schedule: Q04DX003 (ip), vehicle: alcohol 102 % of control | [16] 95 % of control | dose: 200.0 mg/kg/injection, schedule: Q04DX003 (ip), vehicle: alcohol 103 % of control | dose: 400.0 mg/kg/injection, schedule: Q04DX003 (ip), vehicle: alcohol 100 % of control

CC1(O)CCC2C3CCC4CC(=O)CCC4(C)C3(F)C(O)CC21C (stereo not given)
inactive: [15] 96 % of control | [16] 102 % of control | dose: 400.0 mg/kg/injection, schedule: Q01DX009 (ip), vehicle: saline 96 % of control

Cc1cc(=O)[nH]c(N/N=C/c2cc(Cl)ccc2O)n1
inactive: [11] 87 % of control

CC1C(O)c2ccccc2OC1N1CCOCC1 (stereo not given)
inactive: dose: 50.0 mg/kg/injection, schedule: Q04DX002 (ip), vehicle: Klucel (hydroxypropylcellulose) (HPC) 96 % of control | dose: 100.0 mg/kg/injection, schedule: Q04DX002 (ip), vehicle: Klucel (hydroxypropylcellulose) (HPC) 100 % of control | dose: 200.0 mg/kg/injection, schedule: Q04DX002 (ip), vehicle: Klucel (hydroxypropylcellulose) (HPC) 93 % of control

CCC(=O)c1c(C)c(C)cc2ccccc12
inactive: [13] 97 % of control | dose: 200.0 mg/kg/injection, schedule: Q01DX009 (ip), vehicle: other 95 % of control | dose: 400.0 mg/kg/injection, schedule: Q01DX009 (ip), vehicle: other 108 % of control

CCCCCc1[nH]c(=O)[nH]c(=O)c1N=Nc1ccccc1
inactive: [14] 98 % of control | dose: 200.0 mg/kg/injection, schedule: Q01DX001 (ip), vehicle: saline with Tween-80 97 % of control | dose: 400.0 mg/kg/injection, schedule: Q01DX001 (ip), vehicle: saline with Tween-80 100 % of control
